Reference: patent US10538555B2, “Macrocyclic inhibitors of the PD-1/PD-L1 and CD80(B7-1)/PD-L1 protein/protein interactions” (BRISTOL-MYERS SQUIBB COMPANY, priority 2014, dated 2020)
pIC50: −log10 of the molar value. *1 amine or outer side, *2 acyl side, *3 side chain or, on linkers, in order; H or OH if unused. Where a SMILES comes first, the peptide text is derived from it. Bridges are numbered along the chain shown (N, C = ends). [ ]: non-standard residue; d: D form. ξ: configuration not given here. Trp(1-CH2COOH) = N[C@@H](Cc1cn(CC(=O)O)c2ccccc12)C(=O)O; Phe(3,4,5-F3) = N[C@@H](Cc1cc(F)c(F)c(F)c1)C(=O)O; NMePhe(4-F) = CN[C@@H](Cc1ccc(F)cc1)C(=O)O; Phe(4-F) = N[C@@H](Cc1ccc(F)cc1)C(=O)O; d(cisHyp) = O=C(O)[C@H]1C[C@@H](O)CN1; Bta = N[C@@H](Cc1csc2ccccc12)C(=O)O; Hyp = O=C(O)[C@@H]1C[C@@H](O)CN1; NMeF = CN[C@@H](Cc1ccccc1)C(=O)O; X1 = O=C([C@H]1COCCN1[*:1])[*:2]; NMeL = CN[C@@H](CC(C)C)C(=O)O; NMeNle = CCCC[C@H](NC)C(=O)O; dNle = CCCC[C@@H](N)C(=O)O; Pip = O=C(O)[C@@H]1CCCCN1; hSer = N[C@@H](CCO)C(=O)O; NMeA = CN[C@@H](C)C(=O)O; Orn = NCCC[C@H](N)C(=O)O; dNMeA = CN[C@H](C)C(=O)O; Dab = NCC[C@H](N)C(=O)O; Dap = NC[C@H](N)C(=O)O; ξC = NC(CS)C(=O)O; Sar = CNCC(=O)O

Biological target: T1, Human PD-L1/PD-1 (Homo sapiens, UniProt Q9NZQ7)
T1 construct: TVMV protease cleavage site (C); made in house; host or cells: HEK293T cells
T1 sequence (Q9NZQ7 with tags, fused parts or gaps): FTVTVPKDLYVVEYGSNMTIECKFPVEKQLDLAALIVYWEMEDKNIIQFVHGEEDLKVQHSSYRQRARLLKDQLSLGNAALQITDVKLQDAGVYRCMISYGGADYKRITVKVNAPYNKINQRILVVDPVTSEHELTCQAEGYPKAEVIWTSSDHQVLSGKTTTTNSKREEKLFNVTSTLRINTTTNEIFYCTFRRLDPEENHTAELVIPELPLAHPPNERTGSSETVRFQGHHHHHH
Experiment: HTRF Human PD-L1/PD-1 binding assay (PD-1-Ig/PD-L1-His)
Settings: PD-L1-His 10 nM, PD-1-Ig 20 nM; class symbol; read-out: HTRF Human PD-L1/PD-1 Binding Assay IC50 Range
Procedure, shortened: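 Truncated Fc-fused human PD-1 (aa 25-167) at 20 nM and His-tagged PD-L1 (aa 18-239) at 10 nM final are used, with peptides preincubated 15 min with PD-L1. Detection uses europium-cryptate anti-Ig and APC anti-His antibodies; 665/620 nm ratio.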

Row | Structure (SMILES) | pIC50
1 | CCCC[C@H]1C(=O)N(C)[C@@H](CCCC)C(=O)N[C@@H](CCC(=O)O)C(=O)N[C@H](C(=O)NCC(N)=O)CSCC(=O)N[C@@H](Cc2ccc(OC)cc2)C(=O)N(C)[C@@H](C)C(=O)N[C@@H](CCN)C(=O)N2CCC[C@H]2C(=O)N[C@@H](Cc2cnc[nH]2)C(=O)N[C@@H](CCC(=O)O)C(=O)N2C[C@H](O)C[C@H]2C(=O)N[C@@H](Cc2c[nH]c3ccccc23)C(=O)N[C@@H](CCN)C(=O)N[C@@H](Cc2c[nH]c3ccccc23)C(=O)N1C [Example 7111] ({CH2CO}-Y(Me)[NMeA][Dab]PHE[Hyp]W[Dab]W[NMeNle][NMeNle]ECG-NH2; thioether N-14) | 8.00 to 9.00
2 | CCCC[C@H]1C(=O)N2C[C@H](O)C[C@@H]2C(=O)N[C@@H](CC(=O)O)C(=O)N[C@@H](C(C)C)C(=O)N(C)[C@@H](Cc2ccccc2)C(=O)N[C@@H](CCC(=O)O)C(=O)N2C[C@H](O)C[C@@H]2C(=O)N[C@@H](Cc2c[nH]c3ccccc23)C(=O)N[C@@H](Cc2ccc(O)cc2)C(=O)N[C@@H](CCN)C(=O)N[C@H](C(=O)NCC(N)=O)CSCC(=O)N[C@@H](Cc2cc(F)c(F)c(F)c2)C(=O)N(C)[C@@H](Cc2ccccc2)C(=O)N1C [Example 9333] ({CH2CO}-[Phe(3,4,5-F3)][NMeF][NMeNle][d(cisHyp)]DV[NMeF]E[d(cisHyp)]WY[Dab]CG-NH2; thioether N-13) | 7.00 to 8.00
3 | CCCC[C@H]1NC(=O)[C@H](Cc2c[nH]c3ccccc23)NC(=O)[C@H](CO)NC(=O)[C@H](Cc2c[nH]c3ccccc23)NC(=O)[C@@H]2C[C@@H](O)CN2C(=O)[C@H](CCCN)NC(=O)[C@H](Cc2cnc[nH]2)NC(=O)[C@@H]2CCCN2C(=O)[C@H](CC(N)=O)NC(=O)[C@H](C)N(C)C(=O)[C@H](Cc2ccc(O)cc2)NC(=O)CSCC(C(=O)NCC(N)=O)NC(=O)[C@H](CCC(=O)O)NC(=O)[C@H](CCCC)N(C)C1=O (stereo partly drawn) [Example 10129] ({CH2CO}-Y[NMeA]NPH[Orn][Hyp]WSW[dNle][NMeNle]E[ξC]G-NH2; thioether N-14) | 5.00 to 6.00
4 | CCCC[C@H]1C(=O)N2C[C@H](O)C[C@@H]2C(=O)N[C@@H](CC(=O)O)C(=O)N[C@@H](C(C)C)C(=O)N(C)[C@@H](Cc2ccccc2)C(=O)N[C@@H](Cc2ccc(O)cc2)C(=O)N2C[C@H](O)C[C@@H]2C(=O)N[C@@H](Cc2c[nH]c3ccccc23)C(=O)N[C@@H](Cc2ccc(O)cc2)C(=O)N[C@@H](CC(=O)O)C(=O)N[C@H](C(=O)NCC(N)=O)CSCC(=O)N[C@@H](Cc2cc(F)c(F)c(F)c2)C(=O)N(C)[C@@H](Cc2ccccc2)C(=O)N1C [Example 9327] ({CH2CO}-[Phe(3,4,5-F3)][NMeF][NMeNle][d(cisHyp)]DV[NMeF]Y[d(cisHyp)]WYDCG-NH2; thioether N-13) | 7.00 to 8.00
5 | CCCC[C@H]1C(=O)N2CCC[C@@H]2C(=O)N[C@@H](CC(=O)O)C(=O)N[C@@H](C(C)C)C(=O)N(C)[C@@H](Cc2ccccc2)C(=O)N[C@@H](CCCN)C(=O)N2CCC[C@@H]2C(=O)N[C@@H](Cc2c[nH]c3ccccc23)C(=O)N[C@@H](Cc2ccc(O)cc2)C(=O)N[C@@H](CCO)C(=O)N[C@H](C(=O)NCC(N)=O)CSCC(=O)N[C@@H](Cc2cc(F)c(F)c(F)c2)C(=O)N(C)[C@@H](Cc2ccccc2)C(=O)N1C [Example 10175] ({CH2CO}-[Phe(3,4,5-F3)][NMeF][NMeNle][dP]DV[NMeF][Orn][dP]WY[hSer]CG-NH2; thioether N-13) | 8.00 to 9.00
6 | CC(C)[C@@H]1NC(=O)[C@H](CC(=O)O)NC(=O)[C@@H](C)N(C)C(=O)[C@H](C)N(C)C(=O)[C@H](Cc2ccccc2)N(C)C(=O)[C@H](Cc2cc(F)c(F)c(F)c2)NC(=O)CSC[C@@H](C(=O)NCC(N)=O)NC(=O)[C@H](CCCN)NC(=O)[C@H](Cc2ccc(O)cc2)NC(=O)[C@H](Cc2c[nH]c3ccccc23)NC(=O)[C@@H](C)N(C)C(=O)[C@H](Cc2ccc(O)cc2)NC(=O)[C@H](Cc2ccccc2)N(C)C1=O [Example 9193] ({CH2CO}-[Phe(3,4,5-F3)][NMeF][NMeA][dNMeA]DV[NMeF]Y[dNMeA]WY[Orn]CG-NH2; thioether N-13) | 8.00 to 9.00
7 | CCCC[C@H]1C(=O)N(C)[C@@H](CCCC)C(=O)N[C@@H](CCC(=O)O)C(=O)N[C@H](C(=O)NCC(N)=O)CSCC(=O)N[C@@H](Cc2ccc(O)cc2)C(=O)N2CCCC[C@H]2C(=O)N[C@@H](CC(N)=O)C(=O)N2CCC[C@H]2C(=O)N[C@@H](CO)C(=O)N[C@@H](CC(C)C)C(=O)N2C[C@H](O)C[C@H]2C(=O)N[C@@H](Cc2c[nH]c3ccccc23)C(=O)N[C@@H](CCN)C(=O)N[C@@H](Cc2cn(CC(=O)O)c3ccccc23)C(=O)N1C [Example 1305] ({CH2CO}-Y[Pip]NPSL[Hyp]W[Dab][Trp(1-CH2COOH)][NMeNle][NMeNle]ECG-NH2; thioether N-14) | 8.00 to 9.00
8 | CCCC[C@H]1C(=O)N2CCC[C@@H]2C(=O)N[C@@H](CC(=O)O)C(=O)N[C@@H](C(C)C)C(=O)N(C)[C@@H](Cc2ccccc2)C(=O)N[C@@H](CCC(=O)O)C(=O)N2CCOC[C@@H]2C(=O)N[C@@H](Cc2c[nH]c3ccccc23)C(=O)N[C@@H](Cc2ccc(O)cc2)C(=O)N[C@@H](CC(C)C)C(=O)N[C@H](C(=O)NCC(N)=O)CSCC(=O)N[C@@H](Cc2cc(F)c(F)c(F)c2)C(=O)N(C)[C@@H](Cc2ccc(F)cc2)C(=O)N1C [Example 10593] ({CH2CO}-[Phe(3,4,5-F3)][NMePhe(4-F)][NMeNle][dP]DV[NMeF]E[X1]WYLCG-NH2; thioether N-13) | 8.00 to 9.00
9 | CCCC[C@H]1C(=O)N(C)[C@@H](CCCC)C(=O)N[C@@H](CCCNC(=N)N)C(=O)NC(C(=O)NCC(N)=O)CSCC(=O)N[C@@H](Cc2ccc(O)cc2)C(=O)N(C)[C@@H](C)C(=O)N[C@@H](CC(N)=O)C(=O)N2CCC[C@H]2C(=O)N[C@@H](CC(N)=O)C(=O)N[C@@H](CC(N)=O)C(=O)N2C[C@H](O)C[C@H]2C(=O)N[C@@H](Cc2c[nH]c3ccccc23)C(=O)N[C@@H](CO)C(=O)N[C@@H](Cc2c[nH]c3ccccc23)C(=O)N1C (stereo partly drawn) [Example 10014] ({CH2CO}-Y[NMeA]NPNN[Hyp]WSW[NMeNle][NMeNle]R[ξC]G-NH2; thioether N-14) | 7.00 to 8.00
10 | CCCC[C@H]1C(=O)N2C[C@H](O)C[C@@H]2C(=O)N[C@@H](CC(=O)O)C(=O)N[C@@H](C(C)C)C(=O)N(C)[C@@H](Cc2ccccc2)C(=O)N[C@@H](Cc2ccc(O)cc2)C(=O)N2C[C@H](O)C[C@@H]2C(=O)N[C@@H](Cc2c[nH]c3ccccc23)C(=O)N[C@@H](Cc2ccc(O)cc2)C(=O)N[C@@H](CCCCN)C(=O)N[C@H](C(=O)NCC(N)=O)CSCC(=O)N[C@@H](Cc2cc(F)c(F)c(F)c2)C(=O)N(C)[C@@H](Cc2ccccc2)C(=O)N1C [Example 9322] ({CH2CO}-[Phe(3,4,5-F3)][NMeF][NMeNle][d(cisHyp)]DV[NMeF]Y[d(cisHyp)]WYKCG-NH2; thioether N-13) | 8.00 to 9.00
11 | CCCC[C@H]1C(=O)N2CCC[C@@H]2C(=O)N[C@@H](CC(=O)O)C(=O)N[C@@H](C(C)C)C(=O)N(C)[C@@H](CC(C)C)C(=O)N[C@@H](Cc2ccc(O)cc2)C(=O)N2CCC[C@@H]2C(=O)N[C@@H](Cc2c[nH]c3ccccc23)C(=O)N[C@@H](Cc2ccc(O)cc2)C(=O)N[C@@H](CCCN)C(=O)N[C@H](C(=O)NCC(N)=O)CSCC(=O)N[C@@H](Cc2ccc(F)cc2)C(=O)N(C)[C@@H](Cc2ccccc2)C(=O)N1C [Example 9251] ({CH2CO}-[Phe(4-F)][NMeF][NMeNle][dP]DV[NMeL]Y[dP]WY[Orn]CG-NH2; thioether N-13) | 6.00 to 7.00
12 | CCCC[C@H]1C(=O)N[C@@H](CC(N)=O)C(=O)N2CCC[C@H]2CN[C@@H](CO)C(=O)N[C@@H](CCO)C(=O)N2CCC[C@H]2C(=O)N[C@@H](Cc2c[nH]c3ccccc23)C(=O)N[C@@H](CCN)C(=O)N[C@@H](Cc2c[nH]c3ccccc23)C(=O)N(C)[C@@H](C)C(=O)N(C)[C@@H](C)C(=O)N[C@@H](CCCNC(=N)N)C(=O)NC(C(=O)NCC(N)=O)CSCC(=O)N[C@@H](Cc2ccc(O)cc2)C(=O)N1C (stereo partly drawn) [Example 10197] | 5.00 to 6.00
13 | CCCC[C@H]1C(=O)N2CCC[C@@H]2C(=O)N[C@@H](CO)C(=O)N[C@@H](C)C(=O)N(C)[C@@H](Cc2ccccc2)C(=O)N[C@@H](Cc2ccc(O)cc2)C(=O)N(C)CC(=O)N[C@@H](Cc2csc3ccccc23)C(=O)N[C@@H](Cc2ccc(O)cc2)C(=O)N[C@@H](CC(C)C)C(=O)N[C@H](C(=O)NCC(N)=O)CSCC(=O)N[C@@H](Cc2ccccc2)C(=O)N(C)[C@@H](Cc2ccccc2)C(=O)N1C [Example 10055] ({CH2CO}-F[NMeF][NMeNle][dP]SA[NMeF]Y[Sar][Bta]YLCG-NH2; thioether N-13) | 6.00 to 7.00
14 | CCCC[C@H]1C(=O)N(C)[C@@H](CCCC)C(=O)N[C@@H](CC(C)C)C(=O)N[C@H](C(=O)NCC(N)=O)CSCC(=O)N[C@@H](Cc2ccc(OC)cc2)C(=O)N(C)[C@@H](C)C(=O)N[C@@H](CC(N)=O)C(=O)N2CCC[C@H]2C(=O)N[C@@H](Cc2c[nH]cn2)C(=O)N[C@@H](CCC(N)=O)C(=O)N2C[C@H](O)C[C@H]2C(=O)N[C@@H](Cc2c[nH]c3ccccc23)C(=O)N[C@@H](CO)C(=O)N[C@@H](Cc2cn(CC(=O)O)c3ccccc23)C(=O)N1C [Example 7141] ({CH2CO}-Y(Me)[NMeA]NPHQ[Hyp]WS[Trp(1-CH2COOH)][NMeNle][NMeNle]LCG-NH2; thioether N-14) | 8.00 to 9.00
15 | CCCC[C@H]1C(=O)N(C)[C@@H](CCCC)C(=O)N[C@@H](CCC(=O)O)C(=O)N[C@H](C(=O)NCC(N)=O)CSCC(=O)N[C@@H](Cc2ccc(O)cc2)C(=O)N(C)[C@@H](C)C(=O)N[C@@H](CC(=O)O)C(=O)N2CCC[C@H]2C(=O)N[C@@H](CN)C(=O)N[C@@H](CC(C)C)C(=O)N2C[C@H](O)C[C@H]2C(=O)N[C@@H](Cc2c[nH]c3ccccc23)C(=O)N[C@@H](CCC(=O)O)C(=O)N[C@@H](Cc2c[nH]c3ccccc23)C(=O)N1C [Example 5257] ({CH2CO}-Y[NMeA]DP[Dap]L[Hyp]WEW[NMeNle][NMeNle]ECG-NH2; thioether N-14) | 7.00 to 8.00
